In EPA's ToxRefDB 2:

Legend:
[1] = test system: rat; conditions: Sub-acute repeat dose toxicity; Oral; Gavage/Intubation; dose end: 7 day; group: systemic; systemic / clinical chemistry / cholesterol / cholesterol + systemic / clinical chemistry / gamma glutamyl transferase (ggt) / gamma …
[2] = test system: rat; conditions: Sub-acute repeat dose toxicity, Oral, Gavage/Intubation, dose end: 7 day, group: systemic
[3] = test system: mouse; conditions: Fertility (Segment I), Oral, Gavage/Intubation, dose end: 1 generation
[4] = test system: dog; conditions: Sub-acute repeat dose toxicity, beagle, Oral, Gavage/Intubation, dose end: 29 day, group: systemic
[5] = test system: dog; conditions: Subchronic oral toxicity in nonrodent, beagle, Gavage/Intubation, dose end: 90 day, group: systemic
[6] = test system: rat; conditions: Sub-acute repeat dose toxicity; Oral; Gavage/Intubation; dose end: 7 day; group: systemic; systemic / clinical chemistry / globulins / globulins + systemic / clinical chemistry / bilirubin / total bilirubin + systemic / organ …
[7] = test system: rat; conditions: Sub-acute repeat dose toxicity; Injection; Intravenous; dose end: 7 day; group: systemic; systemic / hematology / platelet / platelet + systemic / organ weight / liver / absolute + systemic / pathology microscopic / liver / …
[8] = test system: rabbit; conditions: Prenatal developmental toxicity study, Oral, Gavage/Intubation, dose end: 19 GD
[9] = test system: mouse; conditions: Sub-acute repeat dose toxicity, Oral, Gavage/Intubation, dose end: 7 day, group: systemic
[10] = test system: rat; conditions: Sub-acute repeat dose toxicity, Oral, Gavage/Intubation, dose end: 14 day, group: systemic
[11] = systemic / clinical chemistry / cholesterol / cholesterol + systemic / clinical chemistry / protein / protein + systemic / hematology / …
[12] = systemic / clinical chemistry / cholesterol / cholesterol + systemic / hematology / eosinophils / eosinophils + systemic / clinical …
[13] = group: maternal, reproductive / reproductive performance / mating / mating + reproductive / reproductive performance / precoital interval / precoital …
[14] = group: parental, systemic / in life observation / body weight / body weight gain + systemic / in life observation / food consumption / food consumption + …
[15] = systemic / in life observation / clinical signs / arrhythmia + systemic / organ weight / testes / absolute + systemic / organ weight / …
[16] = systemic / in life observation / food consumption / food consumption + systemic / pathology microscopic / liver / depletion glycogen + …
[17] = systemic / clinical chemistry / alanine aminotransferase (alt/sgpt) / alanine aminotransferase (alt/sgpt) + systemic / clinical chemistry / …
[18] = systemic / clinical chemistry / alkaline phosphatase (alp/alk) / alkaline phosphatase (alp/alk)
[19] = systemic / clinical chemistry / creatinine / creatinine + systemic / clinical chemistry / potassium / potassium + systemic / in life …
[20] = systemic / organ weight / liver / absolute
[21] = systemic / clinical chemistry / cytochrome p450, nos / cytochrome p450, nos + systemic / clinical chemistry / glucose / glucose + systemic…
[22] = systemic / clinical chemistry / cytochrome p450, nos / cytochrome p450, nos + systemic / in life observation / clinical signs / lacrimation …

With `CCc1nn(CCO)c(CC)c1Oc1cc(C#N)cc(C#N)c1` [Lersivirine] the LOAEL [1] was over 35 mg/kg/day, the NEL [1] was under 35 mg/kg/day and the NOAEL [1] was at least 35 mg/kg/day. For the same compound, the LEL [2, 11] was 70 mg/kg/day, the NEL [2, 11] was under 70 mg/kg/day and the LOAEL [2, 12] was over 1000 mg/kg/day. For the same compound, the NOAEL [2, 12] was at least 1000 mg/kg/day, the LEL [3, 13] was 700 mg/kg/day and the LOAEL [3, 13] was over 700 mg/kg/day. It also gave an NEL [3, 13] of 200 mg/kg/day, an NOAEL [3, 13] of at least 700 mg/kg/day and an LEL [3, 14] of 700 mg/kg/day. It also gave an LOAEL [3, 14] of over 700 mg/kg/day, an NEL [3, 14] of 200 mg/kg/day and an NOAEL [3, 14] of at least 700 mg/kg/day. For the same compound, the LEL [4, 15] was 10 mg/kg/day, the NEL [4, 15] was under 10 mg/kg/day and the LOAEL [4, 16] was over 50 mg/kg/day. For the same compound, the NOAEL [4, 16] was at least 50 mg/kg/day, the LOAEL [5, 17] was over 60 mg/kg/day and the NOAEL [5, 17] was at least 60 mg/kg/day. The LEL [5, 18] was 7 mg/kg/day, the NEL [5, 18] was under 7 mg/kg/day and the LOAEL [6] was over 150 mg/kg/day. The NEL [6] was under 150 mg/kg/day, the NOAEL [6] was at least 150 mg/kg/day and the LOAEL [7] was over 35 mg/kg/day. It also gave an NEL [7] of under 35 mg/kg/day, an NOAEL [7] of at least 35 mg/kg/day and an NEL ([8]; group: developmental, developmental / developmental malformation / bone / absent + developmental / developmental malformation / bone / fused) of 250 mg/kg/day. The NEL ([8]; group: maternal, reproductive / reproductive performance / postimplantation loss / postimplantation loss) was under 100 mg/kg/day, the LOAEL [9, 19] was over 750 mg/kg/day and the NOAEL [9, 19] was at least 750 mg/kg/day. The LEL [9, 20] was 70 mg/kg/day, the NEL [9, 20] was under 70 mg/kg/day and the LOAEL [10, 21] was over 300 mg/kg/day. For the same compound, the NOAEL [10, 21] was at least 300 mg/kg/day, the LEL [10, 22] was 20 mg/kg/day and the NEL [10, 22] was under 20 mg/kg/day.
